{"source": "patent US20250108119A1", "about": "“NOVEL STEROID PAYLOADS, STEROID LINKERS, ADCs CONTAINING AND USE THEREOF” (IMMUNEXT, INC., priority 2021, published 2025)", "key": {"FKBP5 [1]": {"tested_on": "FKBP5", "test": "FKBP5 transcription in isolated human monocytes, B cells and Tregs", "format": "cell-based", "text": "Monocytes or B cells were isolated from healthy donor blood samples and treated with free steroid, anti-VISTA conjugated steroid, or conjugated isotype control. RNA was isolated, and change in FKBP5 transcript level assessed by qPCR.\nThe various immune populations were isolated using different cell isolation kits and following manufacturer instructions: • EasySep Human monocyte enrichment kit without CD16 depletion (StemCell cat #19058) • Pan B cell isolation kit, human (Miltenyi Biotec, 130-101-638). • EasySep™ Human CD4+CD127 low CD49d-regulatory T cell enrichment Kit (StemCell cat #19232)\nMonocytes, B cells or Tregs were plated (from single donors) at 2×10^6 cells per well in a 12-well plate in RPMI, 10% human AB serum, 10 mM Hepes, 1× Penicillin/Streptomycin/Glutamine.\nFor single dose experiments, cells were treated with 20 nM free J payload or INX-SM-3 payload or the molar payload equivalent of huIgG1si J, INX201J or INX231P (the linked form of INX-SM-3). […]\nAfter one wash with PBS, RNA was isolated from cell pellets using either the RNeasy Plus Mini kit (Qiagen, PN: 74136) or NucleoSpin RNA Plus (Macherey-Nagel #740984.250). […] RNA concentration was assessed by UV spectroscopy using a Nanodrop 2000. […]\nQuantitative Real-Time PCR was done using Taqman master mix 2× kit (#4369016) and run on a QuantStudio3 from Applied Biosystem. […]"}, "[2]": {"test": "Linker payload and released payload in serum and peripheral blood leukocytes (MS)", "format": "in vivo, cynomolgus monkey", "conditions": "INX234P 15 mg/Kg i.v., analyte as labelled", "procedure": "MS quantification was performed by Quintara Discovery on cell pellets and on serum.\nBriefly, cell pellets were suspended with 100 μL of 20% methanol.\nNormalization of the data to cell volume (ng/ml) was done by first calculating the cell numbers based on the PBL or WBC hematological count and the fixed volume for each sample processed for MS. We then converted to volume by using the arbitrary mean corpuscular volume (MCV) of […] per cell that is the most frequently adopted (3).\nEach plasma sample was extracted with acetonitrile: methanol containing internal standard (Verapamil)."}, "human PBMC [3]": {"tested_on": "human PBMC", "test": "Identification and quantification of released payload in human PBMC (MS)", "format": "in vitro ADME", "conditions": "4 hrs, same antibody", "procedure": "In all the following experiments, human PBMC, isolated from 1 healthy donor per study, were treated with exemplary anti-VISTA glucocorticoid conjugates according to the invention to allow identification and quantification of the released payload.\nIn the present experiments, after incubating PBMC with glucocorticoid (GC) antibody drug conjugates (ADC) for 4h, cells were harvested and assessed for both FKBP5 transcription induction via quantitative real time PCR (qPCR) as well as assessed via mass spectrometry (MS) for released payload identification and quantification.\nIsolated PBMCs were resuspended in RPMI 1640 containing 10% human AB serum, 10 mM Hepes, 1× Penicillin/Streptomycin/L-Glutamine (assay media).\nPBMCs from 1 donor were washed 2× in PBS, and then resuspended at 1×10^7/mL in media. […]\nRemaining cells for each treatment were dived into aliquots representing 50 million cells per aliquot (for metabolite quantification only one aliquot per condition was generated). […]\nMedia was removed from each cell pellet with the media then set aside at −80C until it could be assessed for the concentration of effluxed payload. […]\nBriefly, pre-chilled 70% ACN (extraction buffer) was added to the PBMC pellets for extraction. […] was injected onto the LCMS (Luna C18 (2) column, Thermo Scientific Q Exactive Hybrid Quadrupole Orbitrap) and resulting masses assessed. […]"}, "[4]": {"tested_on": "peritoneal resident macrophages (PRM)", "test": "In vivo treatment/ex vivo PRM activation, TNFα and IL-6 in supernatant", "parameters": "species or system hVISTA mice", "conditions": "linker/payloads as anti-VISTA conjugates", "procedure": "Based thereon we developed a model to allow us to evaluate long-term anti-inflammatory impact of ADC on specific target populations, such as PRMs. […] In the absence of GC treatment, after 2h PRMs become highly activated as shown by increases in cytokine production. […] The objective of these studies was to evaluate the efficacy and pharmacodynamic range of INX human VISTA antibodies conjugated to a glucocorticoid payload as compared to free Dex.\nAfter euthanasia, mice were injected in the peritoneal cavity with 7 ml of PBS/0.5% BSA/2 mM EDTA. After a brief massage of the peritoneum, a small incision was performed and the peritoneal lavage collected. PRM were isolated using negative selection (Miltenyi kit, ref 130-110-434). Spleen were dissected and dissociated mechanically; monocytes were isolated using […] (Stem Cell, EasySep™ Mouse CD11b Positive Selection Kit II).\nPRMs were resuspended in RPMI 1640 with 10% FBS, 10 mM Hepes, Penicillin/Streptomycin and glutamine and 100,000 cells were plated per well in a 96-well tissue culture plate. Supernatants were collected at 2 and 24h post plating and stored at −80° C. […]\n• BioLegend (cat #430904) ELISA MAX Deluxe Set Mouse TNF-α • BioLegend (cat #431304) ELISA MAX Deluxe Set Mouse IL-6\nELISAs were conducted following the manufacturer's included protocol."}, "[5]": {"tested_on": "LPS stimulated human PBMCs", "test": "LPS stimulated human PBMC, IL-1β and IL-6 ELISA", "format": "cell-based", "procedure,_shortened": "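Human PBMC (1-2 healthy donors), 150,000 cells/well, treated with test agents at 1,000 nM down to 1 nM or 0.2 nM, in duplicate. LPS at 1 ng/ml added immediately after free payload or 4 h after conjugates; IL-1β and IL-6 in supernatants measured by ELISA.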"}, "human PBMC [6]": {"tested_on": "human PBMC", "test": "Cytokine production (IL-1β, IL-6) at 24 hr by human PBMC incubated with 1 ng/mL LPS", "format": "cell-based", "conditions": "free steroid payloads, serial dilutions, 1 ng/mL LPS, 24 hr", "procedure,_shortened": "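Human PBMC were stimulated with 1 ng/mL LPS together with serial dilutions of steroid payloads or glucocorticoid conjugates, spanning up to 8,000 nM down to 0.032 nM depending on the series. IL-1β and IL-6 were measured at 24 hr from technical duplicates, with 1-2 donors. Values above the ULOQ were extrapolated.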"}, "FKBP5 [7]": {"tested_on": "FKBP5", "test": "FKBP5 transcription in peritoneal resident macrophages (PRM) and spleen cells after in vivo treatment", "parameters": "species or system hVISTA mice", "conditions": "linker payloads as anti-VISTA conjugates"}}, "note": "Entries after “also recorded” stand apart in the source; their conditions may differ."}
{"smiles": "C[C@]12C=CC(=O)C=C1CC[C@@H]1[C@@H]2[C@@H](O)C[C@@]2(C)[C@H]1C[C@H]1O[C@@H](c3ccc(Cc4cccc(N)c4)cc3)O[C@]12C(=O)CO", "note": "[free J payload, reference compound]", "values": [{"measurement": "FKBP5 transcription in monocytes and B cells", "setting": "FKBP5 [1]; Experiment 1: 20 nM payload, 1 day", "value": "robust increase in FKBP5 transcription was observed with free J payload in both monocytes and B cells"}]}
{"smiles": "C[C@]12C=CC(=O)C=C1CC[C@@H]1[C@@H]2[C@@H](O)C[C@@]2(C)[C@H]1C[C@H]1O[C@@H](c3ccc(CC45CC(NC(=O)[C@H](CCC(=O)O)NC(=O)CNC(=O)CSC[C@H](N)C(=O)O)(C4)C5)cc3)O[C@]12C(=O)CO", "note": "[P-cys, (S)-4-(2-(2-(((R)-2-amino-2-carboxyethyl)thio)acetamido)acetamido)-5-((3-(4-((6aR,6bS,7S,8aS,8bS,10R,11aR,12aS,12bS)-7-hydroxy-8b-(2-hydroxyacetyl)-6a,8a-dimethyl-4-oxo-2,4,6a,6b,7,8,8a,8b,11a,12,12a,12b-dodecahydro-1H-naphtho[2′,1′:4,5]indeno[1,2-d][1,3]dioxol-10-yl)benzyl)bicyclo[1.1.1]pentan-1-yl)amino)-5-oxopentanoic acid]", "values": [{"measurement": "serum level by day 8 (192 hr) post injection", "setting": "[2]", "value": "below detection"}, {"measurement": "time of peak concentration in serum", "setting": "[2]", "value": "~12", "unit": "h"}, {"measurement": "Kp", "setting": "[2]; cynomolgus monkey, in vivo, read-out: intracellular (PBL) levels as compared to serum", "value": 100}]}
{"smiles": "C[C@]12C=CC(=O)C=C1CC[C@@H]1[C@@H]2[C@@H](O)C[C@@]2(C)[C@H]1C[C@H]1O[C@@H](c3ccc(CC45CC(NC(=O)[C@H](CCC(=O)O)NC(=O)CNC(=O)CBr)(C4)C5)cc3)O[C@]12C(=O)CO", "note": "[INX P, (S)-4-(2-(2-bromoacetamido)acetamido)-5-((3-(4-((6aR,6bS,7S,8aS,8bS,10R,11aR,12aS,12bS)-7-hydroxy-8b-(2-hydroxyacetyl)-6a,8a-dimethyl-4-oxo-2,4,6a,6b,7,8,8a,8b,11a,12,12a,12b-dodecahydro-1H-naphtho[2′,1′:4,5]indeno[1,2-d][1,3]dioxol-10-yl)benzyl)bicycle[1.1.1]pentan-1-yl)amino)-5-oxopentanoic acid]", "values": [{"measurement": "released payload relative to INX J / INX231J", "setting": "human PBMC [3]", "value": "~3", "unit": "×"}, {"measurement": "potency in PRM cytokine model when dosed 7 days early (conclusions)", "setting": "[4]", "value": "show similar potency when dosed 7 days early"}]}
{"smiles": "C[C@]12C=CC(=O)C=C1CC[C@@H]1[C@@H]2[C@@H](O)C[C@@]2(C)[C@H]1C[C@H]1O[C@@H](c3ccc(CC45CC(N)(C4)C5)cc3)O[C@]12C(=O)CO", "note": "[INX-SM-3, (6aR,6bS,7S,8aS,8bS,10R,11aR,12aS,12bS)-10-(4-((3-aminobicyclo[1.1.1]pentan-1-yl)methyl)phenyl)-7-hydroxy-8b-(2-hydroxyacetyl)-6a,8a-dimethyl-1,2,6a,6b,7,8,8a,8b,11a,12,12a,12b-dodecahydro-4H-naphtho[2′,1′:4,5]indeno[1,2-d][1,3]dioxol-4-one]", "values": [{"measurement": "inhibition of IL-1β and IL-6 production", "setting": "[5]; Experiment 1: free payload 1000-1 nM, 1 ng/ml LPS, 24 hr, n=1 donor", "value": "inhibit both IL-1β and IL-6 production; also recorded: the most potent compound among these three"}, {"measurement": "inhibition of IL-1β production", "setting": "[5]; Experiment 2: free payload 1000-1 nM, 24 hr, n=1 donor", "value": "show inhibition in IL-1β production; also recorded: again the most potent compound among these compounds tested"}, {"measurement": "inhibition of IL-1β production", "setting": "[5]; Experiment 8: free payload 1000-0.5 nM", "value": "robust inhibition in IL-1B production"}, {"measurement": "FKBP5 transcription in Tregs", "setting": "FKBP5 [1]; Experiment 3: 20 nM payload, 2 donors", "value": "lead to increased FKBP5 transcription"}, {"measurement": "inhibition of IL-1β production", "setting": "human PBMC [6]", "value": "inhibit; also recorded: robust inhibition"}, {"measurement": "inhibition of IL-6 production", "setting": "human PBMC [6]", "value": "inhibit"}]}
{"smiles": "C[C@]12C=CC(=O)C=C1CC[C@@H]1[C@@H]2[C@@H](O)C[C@@]2(C)[C@H]1C[C@H]1O[C@@H](c3ccc(CC4CC5(C4)CC(NC(=O)[C@H](CC(N)=O)NC(=O)CNC(=O)CBr)C5)cc3)O[C@]12C(=O)CO", "note": "(stereo partly drawn) [INX A11, (S)-2-(2-(2-bromoacetamido)acetamido)-N1-(6-(4-((6aR,6bS,7S,8aS,8bS,10R,11aR,12aS,12bS)-7-hydroxy-8b-(2-hydroxyacetyl)-6a,8a-dimethyl-4-oxo-2,4,6a,6b,7,8,8a,8b,11a,12,12a,12b-dodecahydro-1H-naphtho[2′,1′:4,5]indeno[1,2-d][1,3]dioxol-10-yl)benzyl)spiro[3.3]heptan-2-yl) succinamide]", "values": [{"measurement": "potency of conjugated linker payloads over INX J (conclusions)", "setting": "[5]", "value": "enhanced potency"}, {"measurement": "FKBP5 induction when dosed 14 days early (conclusions)", "setting": "FKBP5 [7]", "value": "still display significant potency when dosed 14 days early in regard to FKBP5 induction"}, {"measurement": "controlling cytokine response in PRM when dosed 14 days early (conclusions)", "setting": "[4]", "value": "significant potency in controlling cytokine response in PRM when dosed 14 days early"}]}
